Literature values in PMC12251151, “Understanding Anti-Obesity Potential of Four Porphyrin Compounds by Investigating Pancreatic Lipase Inhibition” (Molecules, 2025).

Key:
[1] = biological target: α-amylase; parameters: method as in PMID 36603279; settings: read-out: IC50 inhibiting α-amylase; cited from earlier work
[2] = biological target: α-glucosidase; parameters: method as in PMID 36603279; settings: read-out: IC50 inhibiting α-glucosidase; cited from earlier work

For COc1ccc([C@@H]2CC(=O)c3c(O)cc(O)cc3O2)cc1O [Hsp, hesperetin], the IC50 [1] is given as 115.6 ± 1.1 µM and the IC50 [2] is given as 55.2 ± 0.1 µM.
